This data set in a line: UPLC/MS detection of schizadrin B in blood plasma after administration of strengthening body resistance and dissipating blood stasis botanical. In kind it is in vivo. As to conditions: plasma of mammals after drenching with the botanical; FIG. 1: rat plasma 0.5 hours after administration; ethyl acetate extraction, UPLC/MS positive ion mode. The procedure: Detection method of blood plasma schizadrin B of strengthening body resistance and dissipating blood stasis botanical includes the following steps: • (1) Pretreatment of mammalian plasma samples • a. Mammal plasma containing drugs after being administered the strengthening body resistance and dissipating blood stasis botanical was extracted with ethyl acetate at the volume ratio of 1:4, whirling for 3 to 5 min, then centrifuging at 9600 rpm for 10 min; and drying and enriching the supernatant under the condition of 25 to 30° C.; • b. Redissolve eluent with mobile phase and then analyze it with UPLC/MS; • (2) UPLC/MS detection
UPLC condition: chromatographic column: ACQUITY UPLC BEH C18 (a type of chromatographic column), 2.1×100 mm, mobile phase A: Water-Acetonitrile-Formic acid 95:5:0.1 v/v/v, mobile phase B: Acetonitrile-Formic acid 100:0.1 v/v; MS condition: electrospray ionization (ESI) ion source, detection with positive ion mode, scanning at the range of m/z 150 to 1200.
The described step (2) detects with the positive ion mode; the desolvation gas flow is 440 L/h, the desolvation gas temperature is 300° C., the cone gas flow is 50 L/h, the ion source temperature is 100° C., the spray capillary voltage is 3800 V, the sampling cone voltage is 30V, the extracting cone voltage is 2.00 V, the lens voltage is 0.1 V, and the mass scanning at the range of m/z 150 to 1200.
1. […]

On to `COc1cc2c(c(OC)c1OC)-c1c(cc3c(c1OC)OCO3)CC(C)C(C)C2` (stereo not shown) [Schizadrin B], for which the “detection of schizadrin B in blood plasma” value is given as “can be detected”.
